# Laboratory results taken from patent US20230390463A1, “TISSUE SCAFFOLDS” (JD BIOMEDICAL SOLUTIONS LTD., priority 2020, published 2023).
# Where two headings read alike, the source gives them in different places.
# What was measured:
# [1] = Hydrophilic-lipophilic balance (HLB); type: physicochemical; conditions: experimentally determined required HLB range
# From the text: As understood herein, the term “hydrophilic-lipophilic balance (HLB)” describes the ratio between the size of the hydrophilic and lipophilic regions of a surfactant molecule. The empirically derived formula: […]
# Was introduced for alkyl ethoxylates (Griffin W. C. J. Soc. Cosmet. Chem., 5 (1954), p. 249.) The HLB of more complex surfactant structures is found using a systematic approach based on chemical group assignments (Davies J. T., Rideal E. K. Interfacial Phenomena Academic Press, New York (1961), pp. 371-378):
# HLB=7+Σ(Hydrophile group number)−Σ(lipophile group number)
# A water-in-oil emulsion (w/o) has […]. An oil-in-water (o/w) emulsion has […]. The propensity for formation of a w/o or o/w emulsion is determined by the balance of hydrophobicity and hydrophilicity of the solutions in the mixture. This may be determined using the HLB scale. Oleic phase reagents are assigned an HLB number, determined experimentally, that allows for selection of an appropriate surfactant to cause emulsification with the aqueous phase. […] HLB as understood herein is a semi-quantitative measure of the relative molecular weights of the hydrophilic and lipophilic regions of a surfactant molecule assigned on a scale from 0.5 (extremely lipophilic) to 19.5 (extremely hydrophilic).
# [2] = surfactant, cited from earlier work
# [3] = Oil carrying capacity (oil fraction at lowest TSI); type: physicochemical; conditions: decane / MES-NaCl buffer, 0.1% (v/v) surfactant, 37° C.
# From the text: The proposed system of determining the oil fraction at which optimum emulsion stability occurs, the ‘oil carrying capacity’ (OCC) of the surfactant, is intended as a tool for surfactant selection in a system where the desired oil fraction is known. Equally, it may be used to optimise oil fraction ‘carried’ in the emulsion when a particular surfactant is required. It is a practical tool to be used in conjunction with other metrics, such as HLB, but its simplicity and broad application make it versatile and easy to implement to formulation practice.
# The oil fraction at the lowest TSI after 15 minutes was identified as the ‘oil carrying capacity’ (OCC) of that surfactant. Further oil/buffer/surfactant mixtures were prepared at 5% oil fractions either side of this minimum (i.e. an initial minimum of 70% oil fraction would be tested then at 65% and 75% oil fraction).
# [4] = system: h-tert human mesenchymal stem cells; assay: Cyto-compatibility of scaffolds (CCK-8, contact and leachable assay); type: cell-based; conditions: acute (24 h) and chronic (120 h) exposure; surfactant at 0.1% v/v in media
# Protocol: Cylindrical samples were cut with an 8 mm biopsy punch (n=3) were cut from two scaffolds. […] At 24 h (acute response time) and 120 h (chronic response time), 300 μl DMEM/CCK-8 (10:1) was added and incubated for 4 hours at 37° C. before reading absorbance at 450 nm. Two scaffolds of the same composition (D3, D4) from different manufacturing batches (0.1% Tx-165 surfactant, 90% porous, 2:1 fibrin: PVA, 2% fibrinogen) were tested with triplicate samples from each. […] This material is known to be non-cytotoxic, verified with both in vitro and in vivo assays.
# [5] = Turbiscan emulsion stability (TSI) of decane/buffer emulsions stabilised with surfactant; type: physicochemical; conditions: 0.1% (v/v) surfactant, 15 mins after mixing
# [6] = as above; type: physicochemical; conditions: 0.1% (v/v) surfactant, 15 mins after mixing; remark: listed apart in the source
# From the text: Stability was herein reported using the Turbiscan™ stability index (TSI). This non-destructive, non-invasive technique gives the stability of the sample over its whole selected height as a function of transmitted and backscattered light compared to the same measurements at the previous timepoint. Kinetic stability is built up over sequential scans. The pattern of change across the height of the sample gives a ‘fingerprint’ characteristic of the mode of destabilisation. TSI is defined in equation 1: […]
# where scani is the backscattering value at a given timepoint, scani-1 is the backscattering value from the previous timepoint, h is the height of the scan and H is the total sample height from the first to the last scan. TSI is the sum of the differences between sequential scans and thus represents the stability of the sample over a defined timeframe. TSI reduces with increasing stability.
# Stock solutions of surfactants were prepared in 7 ml polystyrene bijou by dispersing 0.1% (v/v) surfactant in decane so that surfactant scaled with oil fraction. These stock solutions were shaken briefly to disperse the surfactants before adding the deionised water. 4 ml mixtures were prepared in triplicate for each surfactant at various oil fractions (50, 60, 70, 80, 90% v/v oil-surfactant). Each sample was vortexed for 1 minute using WhirliMixer™ (Fisherbrand) to homogenise immediately prior to stability measurements.
# 3 ml of the sample was pipetted into a borosilicate glass cuvette, taking care to maintain a clean meniscus, and analysed using Turbiscan™ LAB Analyser (Formulation, Toulouse, France) scanning every 30 seconds for a total of 15 minutes.
# Turbiscan stability index (TSI) was plotted for each surfactant as a function of oil fraction in the emulsion preparation, HLB, or time. Lower TSI indicates less change in the transmitted light, or less change in particle size and position.
# Stability was measured using the Turbiscan™ static multiple light scattering analyser and expressed using the Turbiscan stability index (TSI) which reflects the change in transmitted and backscattered light across the height of a sample over a period of time. A higher value of TSI reflects poorer stability; a lower value reflects greater stability. However, because TSI measures rate of change, emulsions which break instantly after mixing ceases can display low TSI values.
compound,measurement,setting,value
CCCCCCCCCC [decane],required HLB of the decane oil phase,[1],10-13
C11-15 pareth-7 [Tergitol 15-S-7],HLB,[2],12.1
C11-15 pareth-9 [Tergitol 15-S-9],HLB,[2],13.3
same,HLB,[2]; listed as Tergitol T-S-9,~13
C11-15 pareth-15 [Tergitol 15-S-15],HLB,[2],15.4
Ethylene oxide-propylene oxide copolymer mono(2-ethylhexyl) ether [Ecosurf EH-9],HLB,[2],12.5
Nonylphenol ethoxylate [Tergitol NP-10],HLB,[2],13.2
Octylphenol ethoxylate [Triton N-101 reduced],HLB,[2],14.4
Octylphenol ethoxylate [Triton X-102],oil fraction at maximum stability (oil carrying capacity),[3],70%
Octylphenol ethoxylate [Triton X-165],cytotoxicity,[4],cytotoxic in itself
Polyethylene glycol 4-tert- octylphenyl ether [Triton X-45],HLB,[2],9.8
Polyethylene glycol 4-tert-octylphenyl ether [Triton X-100 reduced],HLB,[2],9.8
Polyethylene glycol tert- octylphenyl ether [Triton X-100],HLB,[2],13.4
same,oil fraction at maximum stability (oil carrying capacity),[3],70%
same,Turbiscan stability index (TSI),"[5]; 75% v/v decane, mixing speed 1000 rpm",3.571
same,Turbiscan stability index (TSI),"[5]; 75% v/v decane, mixing speed 2000 rpm",2.601
same,Turbiscan stability index (TSI),"[5]; 75% v/v decane, mixing speed 3000 rpm",2.723
same,Turbiscan stability index (TSI),"[5]; 75% v/v decane, mixing speed 4000 rpm",3.213
same,Turbiscan stability index (TSI),"[5]; 75% v/v decane, mixing speed 5000 rpm",2.398
same,Turbiscan stability index (TSI),"[5]; 80% v/v decane, mixing speed 4000 rpm",9.886
same,Turbiscan stability index (TSI),"[6]; 70% v/v decane, mixing speed 1000 rpm",3.189
same,Turbiscan stability index (TSI),"[6]; 70% v/v decane, mixing speed 2000 rpm",2.758
same,Turbiscan stability index (TSI),"[6]; 70% v/v decane, mixing speed 3000 rpm",8.763
same,Turbiscan stability index (TSI),"[6]; 70% v/v decane, mixing speed 4000 rpm",3.637
same,Turbiscan stability index (TSI),"[6]; 70% v/v decane, mixing speed 5000 rpm",2.705
same,Turbiscan stability index (TSI),"[6]; 80% v/v decane, mixing speed 1000 rpm",2.483
same,Turbiscan stability index (TSI),"[6]; 80% v/v decane, mixing speed 2000 rpm",2.225
same,Turbiscan stability index (TSI),"[6]; 80% v/v decane, mixing speed 3000 rpm",2.493
same,Turbiscan stability index (TSI),"[6]; 80% v/v decane, mixing speed 5000 rpm",5.128
Polyethylene glycol tert-octylphenyl ether [Triton X-114 reduced],HLB,[2],13.4
Polyethylene glycol tert-octylphenyl ether [Triton X-114],HLB,[2],12.3
same,oil fraction at maximum stability (oil carrying capacity),[3],70%
Polyethylene glycol trimethylnonyl ether [Tergitol TMN-6],HLB,[2],13.1
Polyethylene glycol trimethylnonyl ether [Tergitol TMN-10],HLB,[2],14.4
Polyoxyethylene (40) isooctylphenyl ether [Triton X-405],HLB,[2],17.6
same,oil fraction at maximum stability (oil carrying capacity),[3],70%
